Measured values taken from ChEMBL document CHEMBL4840344, “Discovery of 1,8-naphthalidine derivatives as potent anti-hepatic fibrosis agents via repressing PI3K/AKT/Smad and JAK2/STAT3 pathways” (Bioorg Med Chem, 2021).
Each block holds one compound with its values, some of them ahead of it. Calls of active or inactive are those of the source. The calls are words filed in the database; no cut-off is given here.

How the values were obtained:
COL1A1 promoter [1] = experiment: Inhibition of COL1A1 promotor activity in human LX2 cells at 50 uM incubated for 24 hrs by luciferase reporter gene assay; type: cell-based
[2] = Anti-fibrogenic activity in human LX2 cells assessed as inhibition of TGFbeta1-induced COL1A1 mRNA expression at 10 uM incubated for 24 hrs by RT-PCR analysis; type: functional; conditions: LX-2
[3] = Cytotoxicity against human LX2 cells assessed as cell death incubated for 24 hrs by MTT assay; type: cell-based, LX-2
COL1A1 promoter [4] = experiment: Inhibition of COL1A1 promotor activity in human LX2 cells at 20 uM incubated for 24 hrs by luciferase reporter gene assay; type: cell-based
Rattus norvegicus [5] = experiment: Antifibrotic activity in Sprague-Dawley rat liver assessed as reduction in TGF-beta1-induced TGF-beta1 protein expression at 200 mg/kg oral gavage for 14 days by Western blot analysis; type: functional, organism-based; conditions: time 14.0 day
[6] = Anti-fibrogenic activity in human LX2 cells assessed as inhibition of TGFbeta1-induced CTGF mRNA expression at 10 uM incubated for 24 hrs by RT-PCR analysis; type: functional; conditions: LX-2
Rattus norvegicus [7] = species: Rattus norvegicus; experiment: Anti-fibrotic activity in Sprague-Dawley rat model of BDL-induced […] fibrosis assessed as reduction in hepatic injury by hematoxylin and eosin staining based microscopic analysis; type: functional, organism-based
Rattus norvegicus [8] = experiment: Antifibrotic activity in Sprague-Dawley rat liver assessed as reduction in TGF-beta1-induced alpha-SMA protein expression at 200 mg/kg oral gavage for 14 days by Western blot analysis; type: functional, organism-based; conditions: time 14.0 day
[9] = target: Mothers against decapentaplegic homolog 3 (Homo sapiens) (UniProt P84022); experiment: Inhibition of TGF-beta1 induced SMAD3 phosphorylation in human LX2 cells by Western blot analysis; type: cell-based
Sequence of Mothers against decapentaplegic homolog 3 (Homo sapiens) (P84022 2-425 limits assumed): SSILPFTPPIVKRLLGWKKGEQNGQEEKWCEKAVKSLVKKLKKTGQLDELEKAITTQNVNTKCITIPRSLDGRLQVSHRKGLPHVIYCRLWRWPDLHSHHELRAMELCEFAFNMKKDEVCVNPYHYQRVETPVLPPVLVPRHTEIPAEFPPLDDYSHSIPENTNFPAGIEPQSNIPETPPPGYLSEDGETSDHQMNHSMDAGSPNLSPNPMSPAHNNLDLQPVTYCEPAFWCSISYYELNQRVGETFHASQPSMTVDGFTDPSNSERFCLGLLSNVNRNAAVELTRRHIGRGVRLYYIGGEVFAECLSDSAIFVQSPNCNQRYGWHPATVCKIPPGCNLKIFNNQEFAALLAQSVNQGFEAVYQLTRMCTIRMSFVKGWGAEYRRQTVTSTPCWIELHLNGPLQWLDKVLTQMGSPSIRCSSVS

[10] = target: Mothers against decapentaplegic homolog 2/homolog 3 (Homo sapiens) (UniProt P84022+Q15796); experiment: Inhibition of TGF-beta1 induced SMAD2/3 phosphorylation in human LX2 cells at 3 to 10 uM incubated for 24 hrs by Western blot analysis; type: cell-based; conditions: dose 3-10 µM
Sequence of Mothers against decapentaplegic homolog 2/homolog 3 (Homo sapiens) (P84022 whole entry, looked up): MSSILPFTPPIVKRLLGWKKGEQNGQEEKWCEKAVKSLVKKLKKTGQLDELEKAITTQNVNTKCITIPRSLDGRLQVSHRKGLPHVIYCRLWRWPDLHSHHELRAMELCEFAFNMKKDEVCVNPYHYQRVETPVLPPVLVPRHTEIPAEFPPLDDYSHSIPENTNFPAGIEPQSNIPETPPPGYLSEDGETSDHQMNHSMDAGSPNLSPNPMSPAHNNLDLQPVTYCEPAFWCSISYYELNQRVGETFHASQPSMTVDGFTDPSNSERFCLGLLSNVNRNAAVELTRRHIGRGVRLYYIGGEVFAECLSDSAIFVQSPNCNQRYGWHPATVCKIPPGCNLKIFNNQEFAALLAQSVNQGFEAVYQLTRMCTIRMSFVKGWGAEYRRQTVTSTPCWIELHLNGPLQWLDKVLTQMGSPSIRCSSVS
Sequence of Mothers against decapentaplegic homolog 2/homolog 3 (Homo sapiens) (Q15796 whole entry, looked up): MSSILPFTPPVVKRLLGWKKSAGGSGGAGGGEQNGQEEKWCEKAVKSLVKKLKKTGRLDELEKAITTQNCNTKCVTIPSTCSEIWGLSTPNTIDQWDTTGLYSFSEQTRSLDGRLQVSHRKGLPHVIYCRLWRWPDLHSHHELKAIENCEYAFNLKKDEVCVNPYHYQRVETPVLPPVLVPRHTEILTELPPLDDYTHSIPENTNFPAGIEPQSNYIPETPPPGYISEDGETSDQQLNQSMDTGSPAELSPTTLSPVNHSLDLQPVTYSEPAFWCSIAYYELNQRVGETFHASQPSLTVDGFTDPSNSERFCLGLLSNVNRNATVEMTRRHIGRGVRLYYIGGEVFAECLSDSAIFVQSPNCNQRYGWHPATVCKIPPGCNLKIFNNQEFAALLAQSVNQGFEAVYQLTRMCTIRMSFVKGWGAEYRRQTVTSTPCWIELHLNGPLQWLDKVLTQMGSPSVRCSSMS

Rattus norvegicus [11] = experiment: Anti-fibrotic activity in Sprague-Dawley rat model of BDL-induced […] fibrosis assessed as reduction in hepatic collagen accumulation in hepatic parenchyma at 200 mg/kg oral gavage for 14 days by Sirius red staining-based analysis; type: functional, organism-based; conditions: time 14.0 day
LX-2 [12] = experiment: Down regulation of JAK3 expression in TGF-beta1 induced human LX2 cells at 3 to 10 uM after 24 hrs by Western blot analysis; type: functional, cell-based; conditions: dose 3-10 µM
[13] = Anti-fibrogenic activity in human LX2 cells assessed as inhibition of TGFbeta1-induced CTGF mRNA expression at 3 uM incubated for 24 hrs by RT-PCR analysis; type: functional; conditions: LX-2
[14] = Anti-fibrogenic activity in human LX2 cells assessed as inhibition of TGFbeta1-induced ACTA2 mRNA expression at 3 uM incubated for 24 hrs by RT-PCR analysis; type: functional; conditions: LX-2
LX-2 [15] = experiment: Anti-fibrogenic activity in human LX2 cells assessed as inhibition of TGFbeta1-induced TGFbeta1 protein level at 3 to 10 uM incubated for 24 hrs by Western blot analysis; type: functional, cell-based; conditions: dose 3-10 µM
[16] = Anti-fibrogenic activity in human LX2 cells assessed as inhibition of TGFbeta1-induced MMP2 mRNA expression at 3 uM incubated for 24 hrs by RT-PCR analysis; type: functional; conditions: LX-2
LX-2 [17] = experiment: Anti-fibrogenic activity in human LX2 cells assessed as inhibition of TGFbeta1-induced MMP2 protein level at 3 to 10 uM incubated for 24 hrs by Western blot analysis; type: functional, cell-based; conditions: dose 3-10 µM
Rattus norvegicus [18] = experiment: Antifibrotic activity in Sprague-Dawley rat liver assessed as reduction in TGF-beta1-induced COL1A1 protein expression at 200 mg/kg oral gavage for 14 days by Western blot analysis; type: functional, organism-based; conditions: time 14.0 day
[19] = Anti-fibrogenic activity in human LX2 cells assessed as inhibition of TGFbeta1-induced TGFbeta1 mRNA expression at 3 uM incubated for 24 hrs by RT-PCR analysis; type: functional; conditions: LX-2
LX-2 [20] = experiment: Down regulation of PI3K expression in TGF-beta1 induced human LX2 cells after 24 hrs by Western blot analysis; type: functional, cell-based
Rattus norvegicus [21] = experiment: Anti-fibrotic activity in Sprague-Dawley rat model of BDL-induced […] fibrosis assessed as reduction in hepatic collagen accumulation in portal areas at 200 mg/kg oral gavage for 14 days by Sirius red staining-based analysis; type: functional, organism-based; conditions: time 14.0 day
[22] = Anti-fibrogenic activity in human LX2 cells assessed as inhibition of TGFbeta1-induced MMP2 mRNA expression at 10 uM incubated for 24 hrs by RT-PCR analysis; type: functional; conditions: LX-2
LX2 = experiment: Inhibition of PI3K/Akt pathway in human LX2 cells assessed as inhibition of TGF-beta1 induced AKT phosphorylation at 3 to 10 uM incubated for 24 hrs by Western blot analysis; type: cell-based; conditions: dose 3-10 µM
LX-2 [23] = experiment: Anti-fibrogenic activity in human LX2 cells assessed as inhibition of TGFbeta1-induced COL1A1 protein level at 3 to 10 uM incubated for 24 hrs by Western blot analysis; type: functional, cell-based; conditions: dose 3-10 µM
LX-2 [24] = experiment: Anti-fibrogenic activity in human LX2 cells assessed as inhibition of TGFbeta1-induced CTGF protein level at 3 to 10 uM incubated for 24 hrs by Western blot analysis; type: functional, cell-based; conditions: dose 3-10 µM
[25] = target: Tyrosine-protein kinase JAK2 (Homo sapiens) (UniProt O60674); experiment: Inhibition of JAK2 phosphorylation in TGF-beta1 induced human LX2 cells at 3 to 10 uM incubated for 24 hrs by Western blot analysis; type: cell-based; conditions: dose 3-10 µM
Sequence of Tyrosine-protein kinase JAK2 (Homo sapiens) (O60674 whole entry): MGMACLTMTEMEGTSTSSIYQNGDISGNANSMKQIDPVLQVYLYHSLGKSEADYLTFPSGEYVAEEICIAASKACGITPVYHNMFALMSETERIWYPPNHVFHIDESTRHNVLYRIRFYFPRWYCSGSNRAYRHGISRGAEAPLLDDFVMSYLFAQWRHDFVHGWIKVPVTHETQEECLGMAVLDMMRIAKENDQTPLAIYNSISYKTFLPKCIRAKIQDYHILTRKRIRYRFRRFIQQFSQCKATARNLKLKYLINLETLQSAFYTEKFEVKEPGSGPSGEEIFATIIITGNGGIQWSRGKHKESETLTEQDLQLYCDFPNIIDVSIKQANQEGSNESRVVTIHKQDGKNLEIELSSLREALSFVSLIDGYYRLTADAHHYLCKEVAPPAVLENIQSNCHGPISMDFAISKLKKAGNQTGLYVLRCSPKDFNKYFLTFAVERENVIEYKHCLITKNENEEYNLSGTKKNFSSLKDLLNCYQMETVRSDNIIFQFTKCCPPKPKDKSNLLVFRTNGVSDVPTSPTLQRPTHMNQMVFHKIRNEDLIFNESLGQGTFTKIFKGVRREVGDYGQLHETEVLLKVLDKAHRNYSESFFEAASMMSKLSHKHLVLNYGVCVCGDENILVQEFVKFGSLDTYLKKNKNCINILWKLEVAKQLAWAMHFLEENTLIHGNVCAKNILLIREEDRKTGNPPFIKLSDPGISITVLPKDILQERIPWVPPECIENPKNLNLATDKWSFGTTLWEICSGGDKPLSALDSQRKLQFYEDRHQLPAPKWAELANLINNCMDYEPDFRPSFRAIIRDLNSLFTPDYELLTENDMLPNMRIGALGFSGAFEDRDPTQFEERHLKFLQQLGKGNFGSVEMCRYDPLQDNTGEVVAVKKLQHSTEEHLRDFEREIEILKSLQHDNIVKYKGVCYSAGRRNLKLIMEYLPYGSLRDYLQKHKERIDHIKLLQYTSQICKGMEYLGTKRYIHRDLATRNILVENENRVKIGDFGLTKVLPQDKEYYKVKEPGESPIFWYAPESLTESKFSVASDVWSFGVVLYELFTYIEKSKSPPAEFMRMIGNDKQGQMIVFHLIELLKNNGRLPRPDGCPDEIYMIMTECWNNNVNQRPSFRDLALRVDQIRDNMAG

Rattus norvegicus [26] = experiment: Antifibrotic activity in Sprague-Dawley rat liver assessed as reduction in TGF-beta1-induced MMP2 protein expression at 200 mg/kg oral gavage for 14 days by Western blot analysis; type: functional, organism-based; conditions: time 14.0 day
[27] = Anti-fibrogenic activity in human LX2 cells assessed as inhibition of TGFbeta1-induced ACTA2 mRNA expression at 10 uM incubated for 24 hrs by RT-PCR analysis; type: functional; conditions: LX-2
[28] = Anti-fibrogenic activity in human LX2 cells assessed as inhibition of TGFbeta1-induced TGFbeta1 mRNA expression at 10 uM incubated for 24 hrs by RT-PCR analysis; type: functional; conditions: LX-2
LX-2 [29] = experiment: Down regulation of STAT3 expression in TGF-beta1 induced human LX2 cells at 3 to 10 uM after 24 hrs by Western blot analysis; type: functional, cell-based; conditions: dose 3-10 µM

Structure (SMILES): CC[N+]1(CCCCCCCOc2ccc(-n3cc(C(=O)Nc4cc(F)cc(F)c4)c(=O)c4ccc(N(C)C)nc43)cc2C)CCCC1
inhibition (COL1A1 promoter [1]): 82.5%
inhibition at 10 µM [2]: 48.5%
CC50 at 24 h [3]: > 100 µM
inhibition (COL1A1 promoter [4]): 44.6%

inhibition [9]: Dose-Dependent Effect
inhibition [10]: Dose-Dependent Effect
inhibition [25]: Active
Structure (SMILES): CC[N+]1(CCCCCCCOc2cc(-n3cc(C(=O)Nc4cc(F)cc(F)c4)c(=O)c4ccc(N(C)C)nc43)ccc2C)CCCC1
inhibition (COL1A1 promoter [1]): 81.3%
Activity (Rattus norvegicus [5]): Active
inhibition at 10 µM [6]: 67.1%
Activity (Rattus norvegicus [7]): Active
Activity (Rattus norvegicus [8]): Active
Activity (Rattus norvegicus [11]): Active
Activity (LX-2 [12]): Dose-Dependent Effect
inhibition at 3 µM [13]: 32%
inhibition at 3 µM [14]: 76.3%
inhibition (LX-2 [15]): Active
inhibition at 3 µM [16]: 36.8%
inhibition (LX-2 [17]): Active
Activity (Rattus norvegicus [18]): Active
inhibition at 10 µM [2]: 79.7%
CC50 at 24 h [3]: 95 µM
inhibition at 3 µM [19]: 28.9%
Activity (LX-2 [20]): Dose-Dependent Effect
Activity (Rattus norvegicus [21]): Active
inhibition at 10 µM [22]: 52.4%
inhibition (LX2): Dose-Dependent Effect
inhibition (LX-2 [23]): Active
inhibition (LX-2 [24]): Active
inhibition (COL1A1 promoter [4]): 57%
Activity (Rattus norvegicus [26]): Active
inhibition at 10 µM [27]: 83.6%
inhibition at 10 µM [28]: 47%
Activity (LX-2 [29]): Dose-Dependent Effect

Structure (SMILES): Cc1cc(OCCCCCCC[N+]2(C)CCCCC2)cc(-n2cc(C(=O)Nc3cc(F)cc(F)c3)c(=O)c3ccc(N(C)C)nc32)c1
inhibition (COL1A1 promoter [1]): 79.7%
inhibition at 10 µM [2]: 23.1%
CC50 at 24 h [3]: 99.4 µM
inhibition (COL1A1 promoter [4]): 46.8%

Structure (SMILES): CN(C)c1ccc2c(=O)c(C(=O)Nc3cc(F)cc(F)c3)cn(-c3ccc(Cl)c(OCCCCCCC[N+](C)(C)C4CCCCC4)c3)c2n1
inhibition (COL1A1 promoter [1]): 81.4%
inhibition at 10 µM [2]: 40.2%
CC50 at 24 h [3]: > 100 µM
inhibition (COL1A1 promoter [4]): 37.6%

Structure (SMILES): CN(C)c1ccc2c(=O)c(C(=O)Nc3cc(F)cc(F)c3)cn(-c3ccc(OCCCCCCC[N+](C)(C)C4CCCCC4)c(Cl)c3)c2n1
inhibition (COL1A1 promoter [1]): 86.2%
inhibition at 10 µM [2]: 30.2%
CC50 at 24 h [3]: > 100 µM
inhibition (COL1A1 promoter [4]): 34.8%

Structure (SMILES): CN1CC[N+](C)(CCCCCCCOc2ccc(-n3cc(C(=O)Nc4cc(F)cc(F)c4)c(=O)c4ccc(N(C)C)nc43)c(Cl)c2)CC1
inhibition (COL1A1 promoter [1]): inactive
CC50 at 24 h [3]: < 20 µM
inhibition (COL1A1 promoter [4]): inactive

Structure (SMILES): CN(C)c1ccc2c(=O)c(C(=O)Nc3cc(F)cc(F)c3)cn(-c3ccc(Cl)c(OCCCCCCC[n+]4ccccc4)c3)c2n1
inhibition (COL1A1 promoter [1]): 77.8%
inhibition at 10 µM [2]: 53.6%
CC50 at 24 h [3]: 105 µM
inhibition (COL1A1 promoter [4]): inactive

inhibition [9]: Dose-Dependent Effect
inhibition [10]: Dose-Dependent Effect
inhibition [25]: Active
Structure (SMILES): CC[N+]1(CCCCCCCOc2cc(C)cc(-n3cc(C(=O)Nc4cc(F)cc(F)c4)c(=O)c4ccc(N(C)C)nc43)c2)CCCCC1
inhibition (COL1A1 promoter [1]): 86.6%
inhibition at 10 µM [6]: 68.1%
Activity (LX-2 [12]): Dose-Dependent Effect
inhibition at 3 µM [13]: 30.8%
inhibition at 3 µM [14]: 74.9%
inhibition (LX-2 [15]): Active
inhibition at 3 µM [16]: 40.8%
inhibition (LX-2 [17]): Active
inhibition at 10 µM [2]: 70.8%
CC50 at 24 h [3]: 97.6 µM
inhibition at 3 µM [19]: 18.9%
Activity (LX-2 [20]): Dose-Dependent Effect
inhibition at 10 µM [22]: 63.7%
inhibition (LX2): Dose-Dependent Effect
inhibition (LX-2 [23]): Active
inhibition (LX-2 [24]): Active
inhibition (COL1A1 promoter [4]): 67.2%
inhibition at 10 µM [27]: 80.8%
inhibition at 10 µM [28]: 66%
Activity (LX-2 [29]): Dose-Dependent Effect

Structure (SMILES): CN(C)c1ccc2c(=O)c(C(=O)Nc3cc(F)cc(F)c3)cn(-c3ccc(Cl)c(OCCCCCCC[N+]4(C)CCCCC4)c3)c2n1
inhibition (COL1A1 promoter [1]): 90.5%
CC50 at 24 h [3]: 72.6 µM
inhibition (COL1A1 promoter [4]): 57.3%
